Test results as given in patent US20230054194A1, “Methods of Treating Cancer” (ARIAGEN, INC., priority 2018, published 2023).

Tested on: CT26.WT
Assay: Subcutaneous syngeneic CT26.WT colon carcinoma mouse model, ARI-001 with anti-mCTLA-4 antibody (Example 153)
Assay type: in vivo
Description: In this example, the in vivo anti-tumor efficacy of ARI-001, an antibody against mouse CTLA-4 (mCTLA-4), and a combination of the two agents was evaluated using the subcutaneous syngeneic CT26.WT (aka CT-26) colon carcinoma mouse model.
CT26.WT cells were obtained from the ATCC and grown in RPMI 1640 medium supplemented with 10% FBS at 37° C. in a 5% CO2 atmosphere. Female Envigo BALB/c mice (BALB/cANNHsd) of 5-6 weeks old were implanted subcutaneously in the right axilla (high) on Day 0 with 5.0×10^5 cells/mouse in 200 μl using a 27-gauge needle and syringe.
ARI-001 powder was dissolved in 100% DMSO to obtain a 106.67 mg/ml dosing formulation with a pH of 7.6. The dosing solution was stored at room temperature and protected from light. The anti-mCTLA-4 9D9 was obtained from BioXcell.
All mice were sorted into study groups based on caliper estimation of tumor burden. Each study group had ten mice. The mice were distributed to ensure that the mean tumor burden for all groups was within 10% of the overall mean tumor burden for the study population. Treatment began on Day 7 at an overall mean tumor burden of 89 mm^3 (range of group means, 87-91 mm^3). All mice were dosed according to individual body weight on the day of treatment (0.2 mL/20 g for anti-mCTLA-4 and vehicle (PBS), 30 μL/20 g for ARI-001 and vehicle (DMSO)). All agents were given to the mice intraperitoneally.
Tumor measurements were recorded three times weekly. Tumor burden (mm^3) was estimated from caliper measurements by the formula for the volume of a prolate ellipsoid assuming unit density as:
Tumor burden(mm^3)=(L×W^2)/2,
The primary endpoints used to evaluate efficacy at the group level were: tumor growth delay, increased time to progression (% ITP), median ΔT/ΔC, complete and partial tumor response, and the number of tumor-free survivors at the end of the study. Tumor growth delay for this experiment was evaluated at 750 mm^3. Time to progression study for this experiment was evaluated at 2,000 mm^3. This is the IACUC required tumor burden limit, and the time to euthanasia can be thought of as a surrogate for lifespan.
In this experiment, median ΔT/ΔC was evaluated when the median control tumor burden reached 1,000 mm^3 (Day 17). A mouse was considered a putative responder if it met at least one of the following criteria: complete regression of the tumor or being at least two standard deviations larger than the median time to progression of the control group. The following are the definitions of the efficacy parameters mentioned above: ΔC and ΔT are individual mouse endpoints that are calculated for each mouse as follows:
Median ΔT/ΔC is a group endpoint. It is calculated for each day of treatment as:
The results are presented as %. When the median ΔT/ΔC is negative (the median treated tumor burden is regressing), the median ΔT/ΔC is not reported and the Median % Regression is reported instead.
Time to Evaluation Size (TES)—TES is an individual mouse endpoint and it is expressed in days from tumor implant. It is the time it takes the tumor burden to reach a specified value, and it can be calculated from any method of evaluating tumor burden (caliper measurements, BLI, anatomical imaging, etc.). It is calculated by log-linear interpolation between the two closest data points that bracket the chosen tumor burden.
Time to Progression (TP)—Time to progression is a surrogate for lifespan, time on study, or lifespan. It is used for studies that involve IACUC mandated euthanasia of animals for excessive tumor burdens (even if the animals otherwise appear normal). The mandated tumor burden limit is tumor model dependent. TP data is analyzed by Kaplan Meier methods just as traditional life span data. The Time to Progression for an individual animal is the number of days between initiation of treatment and the death or required euthanasia of that animal. […]

## COC(=O)c1csc(C(=O)c2c[nH]c3ccccc23)n1 [ARI-001]
CT26.WT, ARI-001 160 mg/kg/inj., 9D9 10 mg/kg/inj.
  Incidence of putative responders: 70%
CT26.WT, ARI-001 160 mg/kg/inj., 9D9 10 mg/kg/inj., intraperitoneally
  Tumor Growth Delay: 2.9 days
Day 17, ARI-001 160 mg/kg/inj., 9D9 10 mg/kg/inj., intraperitoneally
  Day 17 Median ΔT/ΔC: 44%
Complete response
  CR: 0%
Mean body weight change during treatment, ARI-001 160 mg/kg/inj., 9D9 10 mg/kg/inj., intraperitoneally
  MBW Change: −8.3%
Median time to progression, 2,000 mm^3, relative to Group 1
  Increase in MTP: 40%
